Reference: ChEMBL document CHEMBL4308841, “Synthesis, in vitro antiproliferative activity, and kinase inhibitory effects of pyrazole-containing diarylureas and diarylamides” (Eur J Med Chem, 2018)

What was measured:
NCI-H522 [1] = assay: Growth inhibition of human NCI-H522 cells assessed as cell growth at 10 uM incubated for 48 hrs by sulforhodamine B assay relative to control; assay type: functional; details: NCI-H522, 48 h, read-out: Activity
HT-29 [2] = assay: Growth inhibition of human HT-29 cells assessed as cell growth at 10 uM incubated for 48 hrs by sulforhodamine B assay relative to control; assay type: functional; details: HT-29, 48 h, read-out: Activity
SK-MEL-2 = assay: Growth inhibition of human SK-MEL-2 cells assessed as cell growth at 10 uM incubated for 48 hrs by sulforhodamine B assay relative to control; assay type: functional; details: SK-MEL-2, 48 h, read-out: Activity
NCI-H226 = assay: Growth inhibition of human NCI-H226 cells incubated for 48 hrs by sulforhodamine B assay; assay type: functional, cell-based; details: NCI-H226, 48 h
SW-620 = assay: Growth inhibition of human SW620 cells incubated for 48 hrs by sulforhodamine B assay; assay type: functional, cell-based; details: SW-620, 48 h
CCRF-CEM [3] = assay: Growth inhibition of human CCRF-CEM cells assessed as cell growth at 0.01 uM incubated for 48 hrs by sulforhodamine B assay relative to control; assay type: functional; details: read-out: Activity
SF-268 = assay: Growth inhibition of human SF268 cells assessed as cell growth at 0.01 uM incubated for 48 hrs by sulforhodamine B assay relative to control; assay type: functional; details: SF-268, 48 h, read-out: Activity
SF-539 = assay: Growth inhibition of human SF539 cells assessed as cell growth at 0.01 uM incubated for 48 hrs by sulforhodamine B assay relative to control; assay type: functional; details: SF-539, 48 h, read-out: Activity
UACC-257 = assay: Growth inhibition of human UACC257 cells assessed as cell growth at 0.01 uM incubated for 48 hrs by sulforhodamine B assay relative to control; assay type: functional; details: UACC-257, 48 h, read-out: Activity
RXF 393 = assay: Growth inhibition of human RXF393 cells assessed as cell growth at 0.01 uM incubated for 48 hrs by sulforhodamine B assay relative to control; assay type: functional; details: RXF 393, 48 h, read-out: Activity
PC-3 = assay: Growth inhibition of human PC3 cells assessed as cell growth at 0.01 uM incubated for 48 hrs by sulforhodamine B assay relative to control; assay type: functional; details: PC-3, 48 h, read-out: Activity
MDA-MB-468 = assay: Growth inhibition of human MDA-MB-468 cells assessed as cell growth at 0.01 uM incubated for 48 hrs by sulforhodamine B assay relative to control; assay type: functional; details: MDA-MB-468, 48 h, read-out: Activity
CCRF-CEM [4] = assay: Growth inhibition of human CCRF-CEM cells assessed as cell growth at 0.1 uM incubated for 48 hrs by sulforhodamine B assay relative to control; assay type: functional; details: read-out: Activity
NCI-H460 = assay: Growth inhibition of human NCI-H460 cells assessed as cell growth at 0.1 uM incubated for 48 hrs by sulforhodamine B assay relative to control; assay type: functional; details: NCI-H460, 48 h, read-out: Activity
NCI-H522 [5] = assay: Growth inhibition of human NCI-H522 cells assessed as cell growth at 0.1 uM incubated for 48 hrs by sulforhodamine B assay relative to control; assay type: functional; details: NCI-H522, 48 h, read-out: Activity
HCT-15 = assay: Growth inhibition of human HCT15 cells assessed as cell growth at 0.1 uM incubated for 48 hrs by sulforhodamine B assay relative to control; assay type: functional; details: HCT-15, 48 h, read-out: Activity
HT-29 [6] = assay: Growth inhibition of human HT-29 cells assessed as cell growth at 0.1 uM incubated for 48 hrs by sulforhodamine B assay relative to control; assay type: functional; details: HT-29, 48 h, read-out: Activity
KM12 = assay: Growth inhibition of human KM12 cells assessed as cell growth at 0.1 uM incubated for 48 hrs by sulforhodamine B assay relative to control; assay type: functional; details: KM12, 48 h, read-out: Activity
SK-MEL-5 = assay: Growth inhibition of human SK-MEL-5 cells assessed as cell growth at 0.1 uM incubated for 48 hrs by sulforhodamine B assay relative to control; assay type: functional; details: SK-MEL-5, 48 h, read-out: Activity
CCRF-CEM [7] = assay: Growth inhibition of human CCRF-CEM cells assessed as cell growth at 1 uM incubated for 48 hrs by sulforhodamine B assay relative to control; assay type: functional; details: read-out: Activity
HL-60(TB) = assay: Growth inhibition of human HL-60(TB) cells assessed as cell growth at 1 uM incubated for 48 hrs by sulforhodamine B assay relative to control; assay type: functional; details: HL-60, 48 h, read-out: Activity
MOLT-4 = assay: Growth inhibition of human MOLT4 cells assessed as cell growth at 1 uM incubated for 48 hrs by sulforhodamine B assay relative to control; assay type: functional; details: MOLT-4, 48 h, read-out: Activity
HCC 2998 = assay: Growth inhibition of human HCC2998 cells assessed as cell growth at 1 uM incubated for 48 hrs by sulforhodamine B assay relative to control; assay type: functional; details: HCC 2998, 48 h, read-out: Activity
A498 [8] = assay: Growth inhibition of human A498 cells assessed as cell growth at 1 uM incubated for 48 hrs by sulforhodamine B assay relative to control; assay type: functional; details: A498, 48 h, read-out: Activity
SR = assay: Growth inhibition of human SR cells assessed as cell growth at 100 uM incubated for 48 hrs by sulforhodamine B assay relative to control; assay type: functional; details: read-out: Activity
SNB-75 = assay: Growth inhibition of human SNB75 cells assessed as cell growth at 100 uM incubated for 48 hrs by sulforhodamine B assay relative to control; assay type: functional; details: SNB-75, 48 h, read-out: Activity
UACC-62 = assay: Growth inhibition of human UACC62 cells assessed as cell growth at 100 uM incubated for 48 hrs by sulforhodamine B assay relative to control; assay type: functional; details: UACC-62, 48 h, read-out: Activity
OVCAR-4 = assay: Growth inhibition of human OVCAR4 cells assessed as cell growth at 100 uM incubated for 48 hrs by sulforhodamine B assay relative to control; assay type: functional; details: OVCAR-4, 48 h, read-out: Activity
OVCAR-8 = assay: Growth inhibition of human OVCAR8 cells assessed as cell growth at 100 uM incubated for 48 hrs by sulforhodamine B assay relative to control; assay type: functional; details: OVCAR-8, 48 h, read-out: Activity
SK-OV-3 = assay: Growth inhibition of human SKOV3 cells assessed as cell growth at 100 uM incubated for 48 hrs by sulforhodamine B assay relative to control; assay type: functional; details: SK-OV-3, 48 h, read-out: Activity
A498 [9] = assay: Growth inhibition of human A498 cells assessed as cell growth at 100 uM incubated for 48 hrs by sulforhodamine B assay relative to control; assay type: functional; details: A498, 48 h, read-out: Activity
SN12C = assay: Growth inhibition of human SN12C cells assessed as cell growth at 100 uM incubated for 48 hrs by sulforhodamine B assay relative to control; assay type: functional; details: read-out: Activity

`COc1cc(Cl)cc(-c2nn(-c3cccc(NC(=O)Nc4ccc(Cl)c(C(F)(F)F)c4)c3)cc2-c2ccncc2)c1` showed a growth at 10 µM (NCI-H522 [1]) of -10.4%, a growth at 10 µM (HT-29 [2]) of 5.57% and a growth at 10 µM (SK-MEL-2) of -34%. For the same molecule, the GI50 (NCI-H226; read-out: GI50) was 2.5 µM, the LC50 (NCI-H226; read-out: LC50) was over 100 µM and the TGI (NCI-H226; read-out: TGI) was 14.7 µM. The GI50 (NCI-H226; read-out: pGI50 (converted)) was 2.51 µM, the LC50 (NCI-H226; read-out: pLC50 (converted)) was over 100 µM and the TGI (NCI-H226; read-out: pTGI (converted)) was 14.8 µM. It also gave a GI50 (SW-620; read-out: GI50) of 1.51 µM, an LC50 (SW-620; read-out: LC50) of 5.78 µM and a TGI (SW-620; read-out: TGI) of 10.5 µM. For the same molecule, the GI50 (SW-620; read-out: pGI50 (converted)) was 1.62 µM, the LC50 (SW-620; read-out: pLC50 (converted)) was 57.5 µM and the TGI (SW-620; read-out: pTGI (converted)) was 10.5 µM. It also gave a growth at 0.01 µM (CCRF-CEM [3]) of 97%, a growth at 0.01 µM (SF-268) of 95% and a growth at 0.01 µM (SF-539) of 96%. For the same molecule, the growth at 0.01 µM (UACC-257) was 91%, the growth at 0.01 µM (RXF 393) was 97% and the growth at 0.01 µM (PC-3) was 94%. For the same molecule, the growth at 0.01 µM (MDA-MB-468) was 92%, the growth at 0.1 µM (CCRF-CEM [4]) was 97% and the growth at 0.1 µM (NCI-H460) was 102%. For the same molecule, the growth at 0.1 µM (NCI-H522 [5]) was 77%, the growth at 0.1 µM (HCT-15) was 54% and the growth at 0.1 µM (HT-29 [6]) was 94%. It also gave a growth at 0.1 µM (KM12) of 98%, a growth at 0.1 µM (SK-MEL-5) of 98% and a growth at 1 µM (CCRF-CEM [7]) of 37%. The growth at 1 µM (HL-60(TB)) was 72%, the growth at 1 µM (MOLT-4) was 58% and the growth at 1 µM (HCC 2998) was 97%. It also gave a growth at 1 µM (A498 [8]) of 78%, a growth at 100 µM (SR) of -30% and a growth at 100 µM (SNB-75) of -38%. The growth at 100 µM (UACC-62) was -85%, the growth at 100 µM (OVCAR-4) was -16% and the growth at 100 µM (OVCAR-8) was -33%. The growth at 100 µM (SK-OV-3) was -39%, the growth at 100 µM (A498 [9]) was -70% and the growth at 100 µM (SN12C) was -43%.
`COc1cc(Cl)cc(-c2nn(-c3cccc(NC(=O)c4ccc(N5CCOCC5)c(C(F)(F)F)c4)c3)cc2-c2ccncc2)c1` showed a growth at 10 µM (NCI-H522 [1]) of 52.7%, a growth at 10 µM (HT-29 [2]) of 21.2% and a growth at 10 µM (SK-MEL-2) of 64.9%. For the same molecule, the GI50 (NCI-H226; read-out: GI50) was 9.34 µM, the LC50 (NCI-H226; read-out: LC50) was over 100 µM and the TGI (NCI-H226; read-out: TGI) was over 100 µM. It also gave a GI50 (NCI-H226; read-out: pGI50 (converted)) of 93.3 µM, an LC50 (NCI-H226; read-out: pLC50 (converted)) of over 100 µM and a TGI (NCI-H226; read-out: pTGI (converted)) of over 100 µM. For the same molecule, the GI50 (SW-620; read-out: GI50) was 2.96 µM, the LC50 (SW-620; read-out: LC50) was over 100 µM and the TGI (SW-620; read-out: TGI) was over 100 µM. The GI50 (SW-620; read-out: pGI50 (converted)) was 29.5 µM, the LC50 (SW-620; read-out: pLC50 (converted)) was over 100 µM and the TGI (SW-620; read-out: pTGI (converted)) was over 100 µM. The growth at 0.01 µM (CCRF-CEM [3]) was 96%, the growth at 0.01 µM (SF-268) was 95% and the growth at 0.01 µM (SF-539) was 99%. For the same molecule, the growth at 0.01 µM (UACC-257) was 91%, the growth at 0.01 µM (RXF 393) was 97% and the growth at 0.01 µM (PC-3) was 97%. It also gave a growth at 0.01 µM (MDA-MB-468) of 94%, a growth at 0.1 µM (CCRF-CEM [4]) of 101% and a growth at 0.1 µM (NCI-H460) of 102%. For the same molecule, the growth at 0.1 µM (NCI-H522 [5]) was 81%, the growth at 0.1 µM (HCT-15) was 85% and the growth at 0.1 µM (HT-29 [6]) was 93%. For the same molecule, the growth at 0.1 µM (KM12) was 95%, the growth at 0.1 µM (SK-MEL-5) was 99% and the growth at 1 µM (CCRF-CEM [7]) was 56%. For the same molecule, the growth at 1 µM (HL-60(TB)) was 105%, the growth at 1 µM (MOLT-4) was 77% and the growth at 1 µM (HCC 2998) was 100%. It also gave a growth at 1 µM (A498 [8]) of 55%, a growth at 100 µM (SR) of 4% and a growth at 100 µM (SNB-75) of 18%. For the same molecule, the growth at 100 µM (UACC-62) was 10%, the growth at 100 µM (OVCAR-4) was 38% and the growth at 100 µM (OVCAR-8) was 32%. It also gave a growth at 100 µM (SK-OV-3) of 70%, a growth at 100 µM (A498 [9]) of 24% and a growth at 100 µM (SN12C) of 55%.
